Reference: patent publication US20130263297A1, “METHODS OF TREATING CANCER” (Cedars-Sinai Medical Center, priority 2010, published 2013)
“Also recorded” adds a separate entry of the source. Each block holds one molecule with its values, some of them ahead of it.

Experiments:
LNCaP cells = test: EMT marker / RANKL expression and signaling by RT-PCR and Western blot, LNCaP model; assay type: cell-based, human; conditions: 20 μM cMyc inhibitor
Experimental: Total RNA from cells was isolated using RNeasy Mini Kit (Qiagen, Valencia, Calif.) according to manufacturer's instructions. Complementary DNA (cDNA) was generated from 3 μg of total RNA using SuperScript® III First-Strand Synthesis System (Invitrogen, Carlsbad Calif.), and 1 μl of cDNA was subjected to PCR analyses using the following primers: RANKL F: 5′-TGGATCACAGCACATCAGAGCAG-3′ (SEQ ID NO:3); RANKL R: 5′-TGGGGCTCAATCTATATCTCGAAC-3′ (SEQ ID NO:4); RANK F: 5′-GGGAAAGCACTCACAGCTAATTTG-3′ (SEQ ID NO:5); RANK R: 5′-GCACTGGCTTAAACTGTCATTCTCC-3′ (SEQ ID NO:6); OPG F: 5′-GCT AAC CTC ACC TTC GAG-3′ (SEQ ID NO:7); OPG R: 5′-TGA TTG GAC CTG GTT ACC-3′ (SEQ ID NO:8); E-cadherin F: 5′-GCCAAGCAGCAGTACATTCTACACG-3′ (SEQ ID NO:9); E-cadherin R: 5′-GCTGTTCTTCACGTGCTCAAAATCC-3′ (SEQ ID NO:10); N-cadherin F: 5′-GATGTTGAGGTACAGAATCGT-3′ (SEQ ID NO:11); N-cadherin R: 5′-GGT CGG TCT GGA TGG CGA-3′ (SEQ ID NO:12); Snail F: 5′-CAGACCCACTCAGATGTCAA-3′ (SEQ ID NO:13); Snail R: 5′-CATAGTTAGTCACACCTCGT-3′ (SEQ ID NO:14); Vimentin F: 5′-GGA CTC GGT GGA CTT CTC-3′ (SEQ ID NO:15); Vimentin R: 5′-CGC ATC TCC TCC TCG TAG-3′ (SEQ ID NO:16). The PCR reaction cycles involved an initial denaturation at 94° C. for 10 min, followed by 36 cycles of 94° C., 1 min; 55° C., 30 sec for RANKL and RANK and 48° C., 1 min for OPG; 72° C., 1 min and a final extension at 72° C. for 10 min. For E-cadherin and N-cadherin gene amplification, the PCR reactions ran for a total of 32 cycles and the annealing temperature was 55° C. and 47° C., respectively for 30 sec. For Snail, Vimentin, and GAPDH amplification, the PCR reactions ran for a total of 28 cycles with annealing temperatures at 48° C. for 30 sec. The amplified PCR products were detected and analyzed on 1% agarose gel.
(§1) ARCaPE and LNCaP cells were cultured in 6-well plate and at 70% confluency, the cells were serum-starved overnight and then treated with 200 ng/ml of trimerized RANKL in serum-free and phenol-red free RPMI-1640 medium for three days before harvesting the cells. ARCaPE-RANKL and LNCaP-RANKL cells were cultured in 6-well plate and treated with 20 μM of LY294002, a PI3K inhibitor, 20 μM of SB203580, an inhibitor of MAP kinase reactivating kinase, or 2 μM of PS341 (bortezomib), a proteasome inhibitor, at 90% confluency for four hours. Cells were lysed in RIPA buffer containing 1× protease inhibitor cocktail (Thermo Fisher Scientific, Waltham, Mass.) and centrifuged, and the supernatants were collected and quantified using Bradford Protein Assay (Thermo Fisher Scientific, Waltham, Mass.). Cell lysates (20-30 μg) were resolved on a 4-12% Bis-Tris gradient SDS-PAGE (Invitrogen, Carlsbad, Calif.) under reducing conditions, followed by transblotting onto nitrocellulose membrane (BioRad, Hercules, Calif.). The membranes were blocked in 5% non-fat milk in PBST for one hour at room temperature (RT) and incubated with diluted primary antibodies in blocking buffer at 4° C. overnight. The primary antibodies used were RANKL, E-cadherin, vimentin, and OPG (Santa Cruz Biotechnology, Inc., Santa Cruz, Calif.), RANK (Amgen, Thousand Oaks, Calif.), N-cadherin (BD Transduction Laboratories, San Jose, Calif.), phosphor-Akt (Ser 473), Akt, phosphor-p38 (Thr180/Tyr182), p38, phosphor-ERK1/2 (Thr202/Tyr204), ERK, phosphor-SAPK/JNK (Thr183/Tyr185), JNK, phosphor-NF-κB p65 (Ser536), and NF-κB p65 (Cell Signaling Technology, Danvers, Mass.). The membranes were washed with PBST for three times before incubating with peroxidase-conjugated anti-mouse or anti-rabbit secondary antibodies at RT for one hour. After three times washing, the membranes were visualized using ECL Plus reagent (GE Healthcare, Piscataway, N.J.).

[1] = tested on: RANKL promoter in LNCaP and LNCaP-RANKL cells; test: RANKL promoter reporter assay, LNCaP model; assay type: cell-based, human; conditions: for RANKL promoter activities in LNCaP cells: vitamin D3 and PTH stimulation
LNCaP-RANKL cells = test: Pathway inhibitor treatment followed by Western blot analysis, LNCaP-RANKL; assay type: cell-based, human; conditions: 4 h
Experimental: ARCaPE and LNCaP cells were cultured in 6-well plate and at 70% confluency, the cells were serum-starved overnight and then treated with 200 ng/ml of trimerized RANKL in serum-free and phenol-red free RPMI-1640 medium for three days before harvesting the cells. ARCaPE-RANKL and LNCaP-RANKL cells were cultured in 6-well plate and treated with 20 μM of LY294002, a PI3K inhibitor, 20 μM of SB203580, an inhibitor of MAP kinase reactivating kinase, or 2 μM of PS341 (bortezomib), a proteasome inhibitor, at 90% confluency for four hours. Cells were lysed in RIPA buffer containing 1× protease inhibitor cocktail (Thermo Fisher Scientific, Waltham, Mass.) and centrifuged, and the supernatants were collected and quantified using Bradford Protein Assay (Thermo Fisher Scientific, Waltham, Mass.). Cell lysates (20-30 μg) were resolved on a 4-12% Bis-Tris gradient SDS-PAGE (Invitrogen, Carlsbad, Calif.) under reducing conditions, followed by transblotting onto nitrocellulose membrane (BioRad, Hercules, Calif.). The membranes were blocked in 5% non-fat milk in PBST for one hour at room temperature (RT) and incubated with diluted primary antibodies in blocking buffer at 4° C. overnight. […]

ARCaPE-RANKL cells = test: Pathway inhibitor treatment followed by Western blot analysis, ARCaPE-RANKL; assay type: cell-based, human
Experimental: as §1

[2] = tested on: RANKL promoter in human osteosarcoma SaOS-2 cells; test: RANKL promoter reporter assay, SaOS-2; assay type: cell-based; conditions: exogenous PTH and vitamin D3
Description: (§2) Because the inventors are interested in how RANKL is transcriptionally regulated, the inventors have constructed a 2.5 kb 5′ upstream region of RANKL promoter. The inventors used BAC clones (RP11-86N24) to amplify the promoter region of RANKL from human chromosome 13 contig. The whole promoter region (2.5 kb) was then cloned into pGL3 basic luciferase reporter vector. The inventors placed RANKL promoter reporter into ARCaPE,M, C4-2, and a positive cell line, SaOS-2 to examine the basic promoter activity. Then, the inventors stimulated the RANKL promoter by various growth factors, such as vitamin D3, PTH, and TGFβ.

[3] = tested on: RANKL promoter in ARCaPE, ARCaPM and ARCaPE-RANKL cells; test: RANKL promoter reporter assay, ARCaP model; assay type: cell-based, human; conditions: vitamin D3 and PTH stimulation
Description: as §2

cMet in ARCaPE cells = test: cMet expression and phosphorylation (Western blot), ARCaPE; assay type: cell-based, human; conditions: exogeneous RANKL or HGF treatment
cMet in LNCaP cells = test: cMet expression and phosphorylation (Western blot), LNCaP; assay type: cell-based, human
[4] = tested on: RANKL-expressing prostate cancer cells; test: Stem cell and neuroendocrine marker expression; assay type: cell-based
[5] = tested on: castration-resistant prostate cancer (CRPC) with bone metastasis; prostate or breast cancers; conditions: cited from earlier work
[6] = target: Flag-tagged RANKL stably expressed in LNCaP cells (LNCaP-RANKL); test: cell-based or functional assay
[7] = target: GFP-tagged RANKL stably expressed in ARCaPE cells (ARCaPE-RANKL); test: cell-based or functional assay
[8] = 20 μM LY294002 or 2 μM PS341, 4 h
[9] = men with clinical progressive prostate or breast cancers

Molecule: CCc1ccc(/C=C2/SC(=S)NC2=O)cc1 [10058-F4, reference compound]
RANKL protein expression in LNCaP-RANKL cells or LNCaP cells treated with RANKL (LNCaP cells): significantly decreased | RANKL transcriptional activity in LNCaP-RANKL cells or LNCaP cells treated with RANKL ([1]; 20 μM cMyc inhibitor): significantly decreased

Molecule: CC(C)C[C@H](NC(=O)[C@H](Cc1ccccc1)NC(=O)c1cnccn1)B(O)O [PS341, bortezomib]
RANKL-induced EMT in LNCaP-RANKL cells (LNCaP-RANKL cells; 2 μM): prevented | RANKL-induced EMT in ARCaPE-RANKL cells (ARCaPE-RANKL cells; 2 μM, 4 h): prevented | E-cadherin expression in ARCaPE-RANKL cells (ARCaPE-RANKL cells; [8]): increased | vimentin and RANKL expression in ARCaPE-RANKL cells (ARCaPE-RANKL cells; [8]): decreased

Molecule: C[S+]([O-])c1ccc(-c2nc(-c3ccncc3)c(-c3ccc(F)cc3)[nH]2)cc1 (stereo not shown) [SB203580]
phosphorylated level of P65 in LNCaP-RANKL cells (LNCaP-RANKL cells; 20 μM): reduction | phosphorylated level of P65 in ARCaPE-RANKL cells (ARCaPE-RANKL cells; 20 μM, 4 h): reduction

Molecule: C=C1CC[C@H](O)C/C1=C/C=C1\CCC[C@]2(C)[C@@H]([C@H](C)CCCC(C)C)CC[C@@H]12 [vitamin D3, reference compound]
RANKL transcriptional (promoter) activity in SaOS-2 cells [2]: induced; also recorded: up-regulated | RANKL promoter activities in LNCaP cells [1]: induced | RANKL promoter activities in ARCaPE cells [3]: induced

Molecule: HGF: HGF, exogenous treatment activating c-Met
cMet expression and phosphorylated level of cMet in ARCaPE cells (cMet in ARCaPE cells): significantly increased | p-c-Met expression of the RANKL-induced c-Met (cMet in LNCaP cells; addition of HGF): increased | cMet expression and phosphorylated level of cMet in LNCaP cells (cMet in LNCaP cells; exogeneous RANKL or HGF treatment): significantly increased

Molecule: denosumab
expression of neuroendocrine markers [4]: blocked | expression of stem cell markers [4]: antagonized | osteonecrosis (undesirable side effects) ([5]; human, in vivo): reported in some patients | patients' survival [5, 9]: improved | skeletal related events [5, 9]: reduced | progression of castration-resistant prostate cancer (CRPC) ([5]; patients with bone metastasis): delay or prevent

formation of mature osteoclasts (TRAP+ multinucleated cells) in co-culture of RAW264.7 with LNCaP-RANKL cells [6]: 2 fold
Molecule: recombinant osteoprotegerin (OPG)

formation of mature osteoclasts (TRAP+ multinucleated cells) in co-culture of RAW264.7 with ARCaPE-RANKL cells [7]: 2 fold
Molecule: recombinant osteoprotegerin (OPG) (receptor)

B1: parathyroid hormone (protein, UniProt P01270 32-115, looked up)
Parathyroid hormone: SVSEIQLMHNLGKHLNSMERVEWLRKKLQDVHNFVALGAPLAPRDAGSQRPRKKEDNVLVESHEKSLGEADKADVNVLTKAKSQ
modifications: Parathyroid hormone
RANKL transcriptional (promoter) activity in SaOS-2 cells [2]: induced; also recorded: up-regulated | RANKL promoter activities in LNCaP cells [1]: induced | RANKL promoter activities in ARCaPE cells [3]: induced
